In the test the target is leukotriene receptor. Briefly: leukotriene receptor binding assay (RBL-1). The following applies: Bruns et al. The source says: The usefulness of the compounds of Formula I is particularly directed to the treatment of humans. By virtue of the activity of the compounds having the Formula I of the present invention as antagonists of Slow Reacting Substance of Anaphylaxis (leukotrienes C, D, and E) are useful in the treatment of allergic rhinitis, asthma, bronchitis, and urticaria. They are also particularly useful for the treatment of cardiovascular diseases mediated by leukotrienes, C, D, and E. See B. Samuelsson, "Leukotrienes: Mediators of Immediate Hypersensitivity Reactions and Inflammation,"Science, Vol. 220, p. 568 (1983); P. J. Piper, "Leukotrienes," Trends in Pharmaceutic Sciences, pp. 75-77 (1983; and J. L. Romson, et al, "Reduction of the Extent of Ischemic Myocardial Injury by Neutrophil Depletion in the Dog," Circulation, Vol. 67, p. 1016 (1983). The activity of the compounds I of the present invention is determined in a leukotriene receptor binding assay (RBL-1) described by R. F. Bruns, W. J. Thomsen, and T. A. Pugsley in Life Sciences, 33, p. 645 (1983).
When tested by the procedures in a leukotriene receptor binding assay (RBL-1) as described by Bruns et al cited above, the compounds of the Formula I as defined in the present invention have the indicated activity as shown in Table 5 as IC50 values expressed in μMs (micromolar).

The term pIC50 denotes the negative decadic logarithm of the IC50, by convention in mol/L. Low values mean a high IC50, high ones a low IC50.

pIC50: −log10 of the molar value.

Take `CCCCCCCCN=C1SC(=CC(=O)O)C(=O)N1CCCCCCCC` [Example 1, [3-Octyl-2-(octylimino)-4-oxo-5-thiazolidinylidene]acetic acid]: the pIC50 was 4.72.
`CCN=C1SC(=CC(=O)O)C(=O)N1CC` [Example 2, [3-Ethyl-2-(ethylimino)-4-oxo-5-thiazolidinylidene]acetic acid] gave a negative-log IC50 (pIC50) of under 4.00.
`CCCCCN=C1SC(=CC(=O)O)C(=O)N1CCCCC` [Example 3, [3-Pentyl-2-(pentylimino)-4-oxo-5-thiazolidinylidene]acetic acid]: the pIC50 is 4.81.
With `CCCCCCN=C1SC(=CC(=O)O)C(=O)N1CCCCCC` [Example 4, [3-Hexyl-2-(hexylimino)-4-oxo-5-thiazolidinylidene]acetic acid] the figure was 4.61.
In the case of `COc1cc(N=C2SC(=CC(=O)O)C(=O)N2c2cc(OC)c(OC)c(OC)c2)cc(OC)c1OC` [Example 6, [4-Oxo-3-(3,4,5-trimethoxyphenyl)-2-[(3,4,5-trimethoxyphenyl)imino]-5-thiazolidinylidene]acetic acid], the pIC50 is under 4.00.
With `COc1ccc(N=C2SC(=CC(=O)O)C(=O)N2c2ccc(OC)cc2)cc1` [Example 7, [4-Oxo-3-(4-methoxyphenyl)-2-[(4-methoxyphenyl)imino]-5-thiazolidinylidene]acetic acid] the figure was under 4.00; with `CCCN=C1SC(=CC(=O)O)C(=O)N1CCC` [Example 8, [4-Oxo-3-propyl-2-(propylimino)-5-thiazolidinylidene]acetic acid], under 4.00; with `CCCCN=C1SC(=CC(=O)O)C(=O)N1CCCC` [Example 9, [3-Butyl-2-(butylimino)-4-oxo-5-thiazolidinylidene]acetic acid], under 4.00.
In turn, `COc1ccccc1N=C1SC(=CC(=O)O)C(=O)N1c1ccccc1OC` [Example 10, [3-(2-Methoxyphenyl)-2-[(2-methoxyphenyl)imino]-4-oxo-5-thiazolidinylidene]acetic acid] showed a negative-log IC50 (pIC50) of under 4.00.
With `CCCCCCN1C(=O)C(=CC(=O)O)SC1=Nc1ccc(Cl)c(Cl)c1` [Example 11, [2-[(3,4-dichlorophenyl)imino]-3-hexyl-4-oxo-5-thiazolidinylidene]acetic acid], the pIC50 is 4.91.
As to `CN1C(=O)C(=CC(=O)O)SC1=Nc1ccc(Cl)c(Cl)c1` [Example 12, [2-[(3,4-dichlorophenyl)imino]-3-methyl-4-oxo-5-thiazolidinylidene]acetic acid], the pIC50 was under 4.00.
`CCCCCCN1C(=O)C(=CC(=O)O)SC1=Nc1ccccc1` [Example 13, [3-Hexyl-4-oxo-2-(phenylimino)-5-thiazolidinylidene]acetic acid] had a negative-log IC50 (pIC50) of 4.41.
In turn, `O=C(O)C=C1SC(=NCCc2ccccc2)N(CCc2ccccc2)C1=O` [Example 15, [4-Oxo-3-(2-phenylethyl)-2-[(2-phenylethyl)imino]-5-thiazolidinylidene]acetic acid] showed a pIC50 of under 4.00.
Molecule `CCCCCCCCCCCN=C1SC(=CC(=O)O)C(=O)N1CCCCCCCCCCC` [Example 16, [3-Undecyl-2-(undecylimino)-4-oxo-5-thiazolidinylidene]acetic acid] showed a pIC50 of under 4.00.
On to `CCCCCCN1C(=O)C(=CC(=O)O)SC1=Nc1cccc2ccccc12` [Example 17, [3-Hexyl-2-[(1-naphthalenyl)imino]-4-oxo-5-thiazolidinylidene]acetic acid], for which the pIC50 is 4.99.
`CCCCCCCN=C1SC(=CC(=O)O)C(=O)N1CCCCCCC` [Example 18, [3-Heptyl-2-(heptylimino)-4-oxo-5-thiazolidinylidene]acetic acid]: the negative-log IC50 (pIC50) is 4.90. This pIC50 and that of the molecule before are within 0.2 log units of each other.
`CCCCCCCCCCN=C1SC(=CC(=O)O)C(=O)N1CCCCCCCCCC` [Example 19, [3-Decyl-2-(decylimino)-4-oxo-5-thiazolidinylidene]acetic acid] showed a negative-log IC50 (pIC50) of under 4.00.
Molecule `CCCCCCCCCCCCN=C1SC(=CC(=O)O)C(=O)N1CCCCCCCCCCCC` [Example 20, [3-Dodecyl-2-(dodecylimino)-4-oxo-5-thiazolidinylidene]acetic acid] gave a negative logarithm of the IC50 (pIC50) of under 4.00.
As for `O=C(O)C=C1SC(=Nc2ccc(Cl)c(Cl)c2)N(c2ccc(Cl)c(Cl)c2)C1=O` [Example 21, [4-oxo-3-(3,4-dichlorophenyl)-2-[(3,4-dichlorophenyl)imino]-5-thiazolidinylidene]acetic acid], the pIC50 was 4.81.
In the case of `O=C(O)C=C1SC(=Nc2ccc(Br)c(Br)c2)N(c2ccc(Br)c(Br)c2)C1=O` [Example 22, [4-Oxo-3-(3,4-dibromophenyl)-2-[(3,4-dibromophenyl)imino]-5-thiazolidinylidene]acetic acid], the negative logarithm of the IC50 (pIC50) is 4.72. The pIC50 values of the last two molecules are within 0.2 log units of each other.
For the molecule `O=C(O)C=C1SC(=Nc2cc(Cl)c(Cl)c(Cl)c2)N(c2cc(Cl)c(Cl)c(Cl)c2)C1=O` [Example 23], the negative-log IC50 (pIC50) was 4.88.
The molecule `COc1cccc(N=C2SC(=CC(=O)O)C(=O)N2c2cccc(OC)c2)c1` [Example 24, [3-(3-Methoxyphenyl)-2-[(3-methoxyphenyl)imino]-4-oxo-5-thiazolidinylidene]acetic acid] showed a negative-log IC50 (pIC50) of under 4.00.
`O=C(O)C=C1SC(=NC2CCCCC2)N(C2CCCCC2)C1=O` [Example 25, [3-Cyclohexyl-2-(cyclohexylimino)-4-oxo-5-thiazolidinylidene]acetic acid]: the negative logarithm of the IC50 (pIC50) was 4.20.
